Measured values reported in patent publication US20020137929A1, “1 - (3-heterocyclylphenyl) isothiourea, -isourea, -guanidine and -amidine herbicidal agents” (Intellectual Property Department, BASF Aktiengesellschaft, priority 1998, published 2002).

What was measured:
ABUTH (Velvetleaf) = test: Postemergence herbicidal evaluation; type: in vivo, Abutilon theophrasti; settings: postemergence
Outline: (§1)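 Visual 0–9 rating versus control (stand, vigor, malformation, size, chlorosis, overall appearance), taken four to five weeks post-spray. Two-week-old seedlings received roughly 0.0156–0.500 kg/ha active in acetone/water (50/50) with 0.5% TWEEN 20 via nozzle at 40 psi.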

AMBEL (Ragweed, Common) [1] = test: Postemergence herbicidal evaluation; type: in vivo, Ambrosia artemisifolia; settings: postemergence
Outline: as §1

[2] = system: CHEAL (Lambsquarters, Common); test: Postemergence herbicidal evaluation; type: in vivo, Chenopodium album; settings: postemergence
Outline: as §1

ECHCG (Barnyardgrass) = test: Postemergence herbicidal evaluation; type: in vivo, Echinochloa crus-galli; settings: postemergence
Outline: as §1

[3] = system: GLXMAW (Soybean, Williams); test: Postemergence herbicidal evaluation; type: in vivo, Glycine max, (L.) Merr. cv Williams; settings: postemergence
Outline: as §1

ORYSAT (Rice, Tebonnet) = test: Postemergence herbicidal evaluation; type: in vivo, Oryza sativa, (L.) Tebonnet; settings: postemergence
Outline: as §1

ZEAMX (Corn, Field) = test: Postemergence herbicidal evaluation; type: in vivo, Zea mays; settings: postemergence
Outline: as §1

AMBEL (Ragweed, Common) [4] = test: Preemergence herbicidal evaluation; type: in vivo, Ambrosia artemisifolia; settings: rated 4-5 weeks after treatment
Outline: (§2)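 Rating at 4–5 wk post-spray on a 0–9 visual scale vs control. Application: aqueous acetone, ~0.0156–0.500 kg/ha, to soil surface after seeding, preemergence.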

CASOB (Sicklepod) = test: Preemergence herbicidal evaluation; type: in vivo, Cassia obtusifolia; settings: rated 4-5 weeks after treatment
Outline: as §2

[5] = system: CHEAL (Lambsquarters, Common); test: Preemergence herbicidal evaluation; type: in vivo, Chenopodium album; settings: rated 4-5 weeks after treatment
Outline: as §2

GALAP (Galium) = test: Preemergence herbicidal evaluation; type: in vivo, Galium aparine; settings: rated 4-5 weeks after treatment
Outline: as §2

CYPSE (Flatsedge) = test: Preemergence weed control under flooded paddy conditions; type: in vivo, Cyperus serotinus; settings: rated 3-4 weeks after treatment
Outline: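 Using flooded silt loam (water 1.5 to 3 cm deep), seeds sown in the top 0.5 cm were exposed preemergence to compound pipetted into the flood at about 0.0313 to 0.500 kg/ha. Effects were scored 0-9 by eye three to four weeks later.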

Cn1c(C(F)(F)F)cc(=O)n(-c2cc(N=C3SCC(=O)N3CC(=O)OCC3CCCCC3)c(Cl)cc2F)c1=O [Compound 123, Cyclohexylmethyl 2-{{2-chloro-5-[3,6-dihydro-3-methyl-2,6-dioxo-4-(trifluoromethyl)-1(2H)-pyrimidinyl]-4-fluorophenyl}imino}-4-oxo-3-thiazolidineacetate]
4.0: Herbicidal rating ORYSAT (ORYSAT (Rice, Tebonnet); rate 0.0156 kg/ha) | Herbicidal rating ORYSAT (ORYSAT (Rice, Tebonnet); rate 0.0313 kg/ha) | Preemergence herbicidal rating AMBEL (AMBEL (Ragweed, Common) [4]; rate 0.1250 kg/ha)
6.0: Preemergence herbicidal rating GALAP (GALAP (Galium); rate 0.2500 kg/ha)
1.0: Preemergence herbicidal rating AMBEL (AMBEL (Ragweed, Common) [4]; rate 0.0313 kg/ha)
0.0: Preemergence herbicidal rating CASOB (CASOB (Sicklepod); rate 0.0156 kg/ha) | Preemergence herbicidal rating CASOB (CASOB (Sicklepod); rate 0.0313 kg/ha) | Preemergence herbicidal rating CASOB (CASOB (Sicklepod); rate 0.0625 kg/ha) | Preemergence herbicidal rating CASOB (CASOB (Sicklepod); rate 0.1250 kg/ha)
7.5: Herbicidal rating ZEAMX (ZEAMX (Corn, Field); rate 0.0625 kg/ha) | Herbicidal rating ZEAMX (ZEAMX (Corn, Field); rate 0.1250 kg/ha)
5.5: Herbicidal rating ORYSAT (ORYSAT (Rice, Tebonnet); rate 0.0625 kg/ha) | Herbicidal rating ORYSAT (ORYSAT (Rice, Tebonnet); rate 0.1250 kg/ha)
8.0: Herbicidal rating GLXMAW ([3]; rate 0.0625 kg/ha)
6.5: Herbicidal rating GLXMAW ([3]; rate 0.0156 kg/ha) | Herbicidal rating GLXMAW ([3]; rate 0.0313 kg/ha) | Herbicidal rating ZEAMX (ZEAMX (Corn, Field); rate 0.0156 kg/ha)
3.0: Preemergence herbicidal rating AMBEL (AMBEL (Ragweed, Common) [4]; rate 0.0625 kg/ha) | Preemergence herbicidal rating CASOB (CASOB (Sicklepod); rate 0.5000 kg/ha) | Preemergence herbicidal rating GALAP (GALAP (Galium); rate 0.0313 kg/ha) | Preemergence herbicidal rating GALAP (GALAP (Galium); rate 0.0625 kg/ha)
9.0: Herbicidal rating ABUTH (ABUTH (Velvetleaf); rate 0.0156 kg/ha) | Herbicidal rating ABUTH (ABUTH (Velvetleaf); rate 0.0313 kg/ha) | Herbicidal rating ABUTH (ABUTH (Velvetleaf); rate 0.0625 kg/ha) | Herbicidal rating ABUTH (ABUTH (Velvetleaf); rate 0.1250 kg/ha) | Herbicidal rating AMBEL (AMBEL (Ragweed, Common) [1]; rate 0.0156 kg/ha) | Herbicidal rating AMBEL (AMBEL (Ragweed, Common) [1]; rate 0.0313 kg/ha) | Herbicidal rating AMBEL (AMBEL (Ragweed, Common) [1]; rate 0.0625 kg/ha) | Herbicidal rating AMBEL (AMBEL (Ragweed, Common) [1]; rate 0.1250 kg/ha) | Herbicidal rating CHEAL ([2]; rate 0.0156 kg/ha) | Herbicidal rating CHEAL ([2]; rate 0.0313 kg/ha) | Herbicidal rating CHEAL ([2]; rate 0.0625 kg/ha) | Herbicidal rating CHEAL ([2]; rate 0.1250 kg/ha) | Herbicidal rating ECHCG (ECHCG (Barnyardgrass); rate 0.1250 kg/ha) | Herbicidal rating GLXMAW ([3]; rate 0.1250 kg/ha) | Preemergence herbicidal rating AMBEL (AMBEL (Ragweed, Common) [4]; rate 0.2500 kg/ha) | Preemergence herbicidal rating AMBEL (AMBEL (Ragweed, Common) [4]; rate 0.5000 kg/ha) | Preemergence herbicidal rating CHEAL ([5]; rate 0.0156 kg/ha) | Preemergence herbicidal rating CHEAL ([5]; rate 0.0313 kg/ha) | Preemergence herbicidal rating CHEAL ([5]; rate 0.0625 kg/ha) | Preemergence herbicidal rating CHEAL ([5]; rate 0.1250 kg/ha) | Preemergence herbicidal rating CHEAL ([5]; rate 0.2500 kg/ha) | Preemergence herbicidal rating CHEAL ([5]; rate 0.5000 kg/ha) | Preemergence herbicidal rating GALAP (GALAP (Galium); rate 0.5000 kg/ha) | herbicidal effect rating, CYPSE (CYPSE (Flatsedge); 0.0625 kg/ha) | herbicidal effect rating, CYPSE (CYPSE (Flatsedge); 0.1250 kg/ha) | herbicidal effect rating, CYPSE (CYPSE (Flatsedge); 0.2500 kg/ha)
5.0: Herbicidal rating ECHCG (ECHCG (Barnyardgrass); rate 0.0156 kg/ha) | Herbicidal rating ECHCG (ECHCG (Barnyardgrass); rate 0.0313 kg/ha) | herbicidal effect rating, CYPSE (CYPSE (Flatsedge); 0.0313 kg/ha)
2.0: Preemergence herbicidal rating AMBEL (AMBEL (Ragweed, Common) [4]; rate 0.0156 kg/ha) | Preemergence herbicidal rating GALAP (GALAP (Galium); rate 0.0156 kg/ha)
7.0: Herbicidal rating ECHCG (ECHCG (Barnyardgrass); rate 0.0625 kg/ha) | Herbicidal rating ZEAMX (ZEAMX (Corn, Field); rate 0.0313 kg/ha) | Preemergence herbicidal rating GALAP (GALAP (Galium); rate 0.1250 kg/ha)
